Where a name gives a salt, the structure may show the parent alone.
Experiments:
Assay type in all cases: biochemical
[1] = molecular target: T1, recombinant human DAO (diamine oxidase) (Homo sapiens, UniProt P19801); test: Amplex Red HRP-coupled amine oxidase activity evaluation, recombinant human DAO; settings: substrate 1 mM putrescine; read-out: Inhibitory Activity (IC50, nM) DAO
T1 construct: purchased R&D systems
T1 sequence (P19801 20-751): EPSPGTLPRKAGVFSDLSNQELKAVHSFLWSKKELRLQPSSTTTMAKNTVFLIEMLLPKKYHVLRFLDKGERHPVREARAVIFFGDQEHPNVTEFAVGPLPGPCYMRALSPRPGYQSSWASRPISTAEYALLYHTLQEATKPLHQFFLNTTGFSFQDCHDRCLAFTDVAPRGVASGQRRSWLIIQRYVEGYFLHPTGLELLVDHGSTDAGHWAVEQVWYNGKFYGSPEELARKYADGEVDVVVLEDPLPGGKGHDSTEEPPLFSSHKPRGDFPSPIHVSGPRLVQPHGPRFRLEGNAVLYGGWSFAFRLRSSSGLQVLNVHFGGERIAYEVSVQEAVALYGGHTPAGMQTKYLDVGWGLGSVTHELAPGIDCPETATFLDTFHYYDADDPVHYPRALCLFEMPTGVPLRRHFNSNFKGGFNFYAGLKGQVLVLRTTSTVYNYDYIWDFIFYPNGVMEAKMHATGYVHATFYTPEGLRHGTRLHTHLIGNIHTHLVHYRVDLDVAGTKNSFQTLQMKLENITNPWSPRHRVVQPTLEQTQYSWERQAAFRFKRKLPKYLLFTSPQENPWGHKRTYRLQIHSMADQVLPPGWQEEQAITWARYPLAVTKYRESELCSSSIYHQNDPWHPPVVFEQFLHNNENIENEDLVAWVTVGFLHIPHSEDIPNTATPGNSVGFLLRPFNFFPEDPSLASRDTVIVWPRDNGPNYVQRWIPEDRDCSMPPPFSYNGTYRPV

recombinant human VAP-1 = molecular target: T2, recombinant human VAP-1 (Homo sapiens, UniProt Q16853); test: Amplex Red HRP-coupled amine oxidase activity evaluation, recombinant human VAP-1; settings: substrate 1 mM benzylamine; 30 min preincubation at 37° C.; read-out: Inhibitory Activity (IC50, nM) human VAP-1
T2 construct: purchased R&D systems
T2 sequence (Q16853 1-763): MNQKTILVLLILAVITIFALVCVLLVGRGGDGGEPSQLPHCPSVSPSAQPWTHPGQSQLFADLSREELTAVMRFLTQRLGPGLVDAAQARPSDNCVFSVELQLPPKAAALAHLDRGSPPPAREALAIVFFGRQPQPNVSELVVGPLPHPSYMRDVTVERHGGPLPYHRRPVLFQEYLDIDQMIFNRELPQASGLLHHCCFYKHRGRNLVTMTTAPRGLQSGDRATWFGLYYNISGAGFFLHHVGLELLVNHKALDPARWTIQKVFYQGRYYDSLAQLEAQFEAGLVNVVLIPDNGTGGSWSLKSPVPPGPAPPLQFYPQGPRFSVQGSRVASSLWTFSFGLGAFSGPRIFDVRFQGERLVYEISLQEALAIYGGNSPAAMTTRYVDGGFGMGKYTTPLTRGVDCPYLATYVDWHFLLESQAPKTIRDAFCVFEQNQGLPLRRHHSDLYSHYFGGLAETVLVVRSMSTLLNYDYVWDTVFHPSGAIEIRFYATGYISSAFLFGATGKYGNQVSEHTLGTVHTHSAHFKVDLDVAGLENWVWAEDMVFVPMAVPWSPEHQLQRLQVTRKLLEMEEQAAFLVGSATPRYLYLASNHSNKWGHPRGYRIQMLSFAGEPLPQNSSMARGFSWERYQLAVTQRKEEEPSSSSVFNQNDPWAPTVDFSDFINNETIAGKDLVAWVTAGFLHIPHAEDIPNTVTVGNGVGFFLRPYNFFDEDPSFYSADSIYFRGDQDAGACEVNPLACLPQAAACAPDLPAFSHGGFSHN
Method in brief: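 Inhibition is scored as the % drop in resorufin signal rate relative to uninhibited DMSO control and fitted to a 4-parameter logistic curve for IC50. VAP-1 and compound are preincubated 30 min at 37° C before benzylamine substrate (1 mM in the added mix) is introduced.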

[2] = molecular target: T3, recombinant human MAO-A (monoamine oxidase-A) (Homo sapiens, UniProt P21397); test: Amplex Red HRP-coupled amine oxidase activity evaluation, recombinant human MAO-A; settings: substrate 0.5 mM tyramine; read-out: Inhibitory Activity (IC50, nM) MAO-A
T3 construct: purchased Sigma-Aldrich
T3 sequence (P21397 1-527): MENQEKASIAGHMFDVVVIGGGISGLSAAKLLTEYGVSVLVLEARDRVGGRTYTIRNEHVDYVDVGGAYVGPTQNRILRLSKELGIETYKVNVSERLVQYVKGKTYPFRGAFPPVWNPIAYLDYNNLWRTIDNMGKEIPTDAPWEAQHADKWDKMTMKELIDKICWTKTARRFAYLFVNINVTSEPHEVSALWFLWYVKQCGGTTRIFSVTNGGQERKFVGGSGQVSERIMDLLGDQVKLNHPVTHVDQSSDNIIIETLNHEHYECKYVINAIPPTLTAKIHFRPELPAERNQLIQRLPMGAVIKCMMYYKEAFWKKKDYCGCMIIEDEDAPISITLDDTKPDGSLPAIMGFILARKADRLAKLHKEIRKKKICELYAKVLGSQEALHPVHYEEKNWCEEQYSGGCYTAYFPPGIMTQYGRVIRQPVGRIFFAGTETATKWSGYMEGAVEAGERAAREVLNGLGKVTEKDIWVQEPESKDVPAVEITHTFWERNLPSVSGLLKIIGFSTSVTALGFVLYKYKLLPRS

[3] = molecular target: T4, recombinant human MAO-B (monoamine oxidase-B) (Homo sapiens, UniProt P27338); test: Amplex Red HRP-coupled amine oxidase activity evaluation, recombinant human MAO-B; settings: substrate 1 mM benzylamine; read-out: Inhibitory Activity (IC50, nM) MAO-B
T4 construct: purchased Sigma-Aldrich
T4 sequence (P27338 1-520): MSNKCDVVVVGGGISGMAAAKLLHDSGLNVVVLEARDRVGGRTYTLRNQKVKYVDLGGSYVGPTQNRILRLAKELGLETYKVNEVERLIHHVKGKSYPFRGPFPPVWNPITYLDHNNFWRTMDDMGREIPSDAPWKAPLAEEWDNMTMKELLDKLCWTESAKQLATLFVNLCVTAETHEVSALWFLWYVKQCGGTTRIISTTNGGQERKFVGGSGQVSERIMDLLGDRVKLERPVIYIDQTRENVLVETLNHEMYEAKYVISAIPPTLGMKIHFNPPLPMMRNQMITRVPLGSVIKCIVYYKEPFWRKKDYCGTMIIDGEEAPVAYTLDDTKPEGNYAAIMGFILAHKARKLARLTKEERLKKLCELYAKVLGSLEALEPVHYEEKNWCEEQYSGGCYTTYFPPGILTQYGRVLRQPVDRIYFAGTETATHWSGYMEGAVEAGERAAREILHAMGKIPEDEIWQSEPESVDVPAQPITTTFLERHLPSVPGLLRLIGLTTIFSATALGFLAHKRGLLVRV

| SMILES | IC50 [1] [nM] | IC50 (recombinant human VAP-1) [nM] | IC50 [2] [nM] | IC50 [3] [nM] |
| --- | --- | --- | --- | --- |
| CN1C(=O)CCc2cc(-c3ccc(Cn4ccn(CC(CN)=C(F)F)c4=O)s3)ccc21 [Example 51, 6-[5-[[3-[2-(aminomethyl)-3,3-difluoro-allyl]-2-oxo-imidazol-1-yl]methyl]-2-thienyl]-1-methyl-3,4-dihydroquinolin-2-one trifluoroacetate] | 206 | 1.9 | > 100000 | 63100 |
| CCn1cc(-c2ccc(Cn3ccn(CC(CN)=C(F)F)c3=O)s2)cn1 [Example 52, 1-[2-(aminomethyl)-3,3-difluoro-allyl]-3-[[5-(1-ethylpyrazol-4-yl)-2-thienyl]methyl]imidazol-2-one trifluoroacetate] | 192 | > 100 | > 100000 | 60200 |
| NCC(Cn1ccn(Cc2ccc(-c3ccn4ncnc4c3)s2)c1=O)=C(F)F [Example 53, 1-[2-(aminomethyl)-3,3-difluoro-allyl]-3-[[5-([1,2,4]triazolo[1,5-a]pyridin-7-yl)-2-thienyl]methyl]imidazol-2-one trifluoroacetate] | 38200 | > 100 | > 100000 | 80500 |
